Assay [1] concerns the target T1, CB1 receptor.
T1 construct: IC50 [nM]; radioligand [3H]-CP55940
As to the kind of experiment: In-vitro determination of affinity to CB1/CB2-receptors (radioligand [3H]-CP55940 binding). Conditions: binding data per pharmacological methods part I, table does not say whether human transfected receptor or rat cerebellum. Summed up: (§1)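 Transfected human CB1/CB2 receptors were tested with [3H]-CP55940. In the modified Govaerts method, rat cerebellum membranes (100 µg protein) were incubated with 1 nM [3H]-CP55940 and compound for 1 h at 30 °C in Tris-HCl/MgCl2/EDTA/0.5% BSA, pH 7.4, with 10 µM HU-210 defining non-specific binding. Filter-bound radioactivity was counted in triplicate and analysed by non-linear regression.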

Assay [2] addresses recombinant human cannabinoid 1 receptor (CB1) (Homo sapiens, UniProt P21554). As to the kind of experiment: In vitro determination of antagonism to CB1-receptor ([35S]GTPγS binding assay, CHO cell membranes). It is filed as biochemical. Conditions: compound at 1 μM against agonist WIN 55,212-2 (3 nM to 3 μM); effect of Rimonabant (1 μM) defined as 100%. Summed up:
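Membranes from CHO cells stably expressing human CB1 (15 μg protein/well) incubated 60 min at 30° C., pH 7.4, with 5 μM GDP, saponin and 0.5 nM [35S]GTPγS, compound at 1 μM final, with or without WIN 55,212-2 (3 nM–3 μM). Bound radioactivity via filtration; basal subtracted, antagonism scaled to WIN 55,212-2 ± Rimonabant (1 μM) window as 100%.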
On the technique in general: GTPγS resists hydrolysis and so accumulates on activated G proteins.

Assay [3] deals with T2, CB1 receptor (UniProt P20272).
T2 construct: other: compound at 10^−7 M; radioligand [3H]-CP55940; other: compound at 10^−8 M
In words: In-vitro determination of affinity to CB1/CB2-receptors (radioligand [3H]-CP55940 binding). To be noted: for Inhibition [%], 10^−7 M: compound at 10^−7 M; for Inhibition [%], 10^−8 M: compound at 10^−8 M. Summed up: as §1

Sequence of recombinant human cannabinoid 1 receptor (CB1) (P21554 whole entry): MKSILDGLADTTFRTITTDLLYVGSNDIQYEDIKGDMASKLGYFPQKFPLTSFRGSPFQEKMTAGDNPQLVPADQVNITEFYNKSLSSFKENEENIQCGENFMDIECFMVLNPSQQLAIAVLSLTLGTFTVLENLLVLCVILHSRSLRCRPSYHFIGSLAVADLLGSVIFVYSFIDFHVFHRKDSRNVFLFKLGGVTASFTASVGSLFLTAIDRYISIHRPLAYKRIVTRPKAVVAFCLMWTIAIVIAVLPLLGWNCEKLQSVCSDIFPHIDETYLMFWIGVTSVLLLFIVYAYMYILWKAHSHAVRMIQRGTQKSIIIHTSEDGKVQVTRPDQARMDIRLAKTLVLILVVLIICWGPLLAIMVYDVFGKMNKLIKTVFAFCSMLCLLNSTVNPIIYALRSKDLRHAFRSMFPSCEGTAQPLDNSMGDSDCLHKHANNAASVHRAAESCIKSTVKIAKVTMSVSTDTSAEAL

One may read the IC50 as the concentration needed to halve the response being measured. High values mean weaker potency in that assay, low ones greater potency in that assay. In turn, `O=C(C1=NN(c2ccc(Cl)cc2Cl)C(c2ccc(Cl)cc2)C1)N1CCCc2ccccc21` (stereo not drawn) [Example 81, [5-(4-Chloro-phenyl)-1-(2,4-dichloro-phenyl)-4,5-dihydro-1H-pyrazol-3-yl]-(3,4-dihydro-2H-quinolin-1-yl)-methanone] gave an IC50 in assay [1] of 708 nM. In assay [2], the “Antagonism [%]” value was 20%.
The corresponding values for `O=C(C1=NN(c2ccc(Cl)cc2Cl)C(c2ccc(Cl)cc2)C1)N1CCC2CCCCC2C1` (stereo not drawn) [Example 22, [5-(4-Chloro-phenyl)-1-(2,4-dichloro-phenyl)-4,5-dihydro-1H-pyrazol-3-yl]-(octahydro-isoquinolin-2-yl)-methanone] are 79.4 nM and 62%.
The corresponding values for `O=C(C1=NN(c2ccc(Cl)cc2Cl)C(c2ccc(Cl)cc2)C1)N1CC=CCC1` (stereo not drawn) [Example 74, [5-(4-Chloro-phenyl)-1-(2,4-dichloro-phenyl)-4,5-dihydro-1H-pyrazol-3-yl]-(3,6-dihydro-2H-pyridin-1-yl)-methanone] are 794 nM and 44%.
The like results for `CC1CCCC(C)N1NC(=O)C1=NN(c2ccc(Cl)cc2Cl)C(c2ccc(Cl)cc2)C1` (stereo not drawn) [Example 12, 5-(4-Chloro-phenyl)-1-(2,4-dichloro-phenyl)-4,5-dihydro-1H-pyrazole-3-carboxylic acid (2,6-dimethyl-piperidin-1-yl)-amide] were, in that order, 250 nM and 78%.
In the case of `O=C(NC1CCCc2ccccc21)C1=NN(c2ccc(Cl)cc2Cl)C(c2ccc(Cl)cc2)C1` (stereo not drawn) [Example 76, 5-(4-Chloro-phenyl)-1-(2,4-dichloro-phenyl)-4,5-dihydro-1H-pyrazole-3-carboxylic acid (1,2,3,4-tetrahydro-naphthalen-1-yl)-amide], in assay [1], the IC50 was 398 nM. For the same compound, in assay [2], the “Antagonism [%]” value worked out at 57%.
In the case of `Cl.O=C(NN1CC2CCCC2C1)C1=NN(c2ccc(Cl)cc2Cl)C(c2ccc(F)cc2)C1` (stereo not drawn) [Example 91, 1-(2,4-Dichloro-phenyl)-5-(4-fluoro-phenyl)-4,5-dihydro-1H-pyrazole-3-carboxylic acid (hexahydro-cyclopenta[c]pyrrol-2-yl)-amide hydrochloride], in assay [3] (hydrochloride), the “Inhibition [%], 10^−7 M” value amounted to 79.1% and the “Inhibition [%], 10^−8 M” value is on record as 43%. Besides, in assay [1] (hydrochloride), the IC50 was 47 nM.
The compound `O=C(NN1CCCCCC1)C1=NN(c2ccc(Cl)cc2Cl)C(c2ccc(Br)cc2)C1` (stereo not drawn) [Example 68, 5-(4-Bromo-phenyl)-1-(2,4-dichloro-phenyl)-4,5-dihydro-1H-pyrazole-3-carboxylic acid azepan-1-ylamide] displayed an IC50 in assay [1] of 39.8 nM. Further, in assay [2], the “Antagonism [%]” value stood at 98%.
Turning to `COc1ccc(C2CC(C(=O)NN3CCCCCC3)=NN2c2ccc(Cl)cc2Cl)cc1.Cl` (stereo not drawn) [Example 114, 1-(2,4-Dichloro-phenyl)-5-(4-methoxy-phenyl)-4,5-dihydro-1H-pyrazole-3-carboxylic acid azepan-1-ylamide hydrochloride], in assay [3], the “Inhibition [%], 10^−7 M” value turned out to be 68.7% and the “Inhibition [%], 10^−8 M” value is recorded as 47.6%. In assay [1] (hydrochloride), this compound gave an IC50 of 24 nM.
As to `COc1ccc(C2CC(C(=O)NN3CCc4ccccc43)=NN2c2ccc(Cl)cc2Cl)cc1.Cl` (stereo not drawn) [Example 112, 1-(2,4-Dichloro-phenyl)-5-(4-methoxy-phenyl)-4,5-dihydro-1H-pyrazole-3-carboxylic acid (2,3-dihydro-indol-1-yl)-amide hydrochloride], in assay [3], the “Inhibition [%], 10^−7 M” value worked out at 61.8% and the “Inhibition [%], 10^−8 M” value turned out to be 46.3%. The IC50 in assay [1] turned out to be 106 nM.
For `O=C(NN1CCCCC1)C1=NN(c2ccc(Cl)cc2Cl)C(c2ccc(Br)cc2)C1` (stereo not drawn) [Example 60A, 5-(4-Bromo-phenyl)-1-(2,4-dichloro-phenyl)-4,5-dihydro-1H-pyrazole-3-carboxylic acid piperidin-1-ylamide], in assay [3], the “Inhibition [%], 10^−7 M” value is 65.8% and the “Inhibition [%], 10^−8 M” value was 33.3%. Besides, the IC50 in assay [1] stood at 44 nM.
The like results for `O=C(NCC1CCCCC1)C1=NN(c2ccc(Cl)cc2Cl)C(c2ccc(Cl)cc2)C1` (stereo not drawn) [Example 32, 5-(4-Chloro-phenyl)-1-(2,4-dichloro-phenyl)-4,5-dihydro-1H-pyrazole-3-carboxylic acid cyclohexylmethyl-amide] were, in that order, 52.7%, 12% and 84 nM.
For `COc1ccc(C2CC(C(=O)NN3CC4CCCC4C3)=NN2c2ccc(Cl)cc2Cl)cc1.Cl` (stereo not drawn) [Example 109A, 1-(2,4-Dichloro-phenyl)-5-(4-methoxy-phenyl)-4,5-dihydro-1H-pyrazole-3-carboxylic acid (hexahydro-cyclopenta[c]pyrrol-2-yl)-amide], in assay [3], the “Inhibition [%], 10^−7 M” value was 74.2% and the “Inhibition [%], 10^−8 M” value is reported as 33.5%. The IC50 in assay [1] was determined as 15 nM.
The corresponding values for `O=C(NC1CCCCCC1)C1=NN(c2ccc(Cl)cc2Cl)C(c2ccc(F)cc2)C1` (stereo not drawn) [Example 131, 5-(4-Fluorophenyl)-1-(2,4-dichloro-phenyl)-4,5-dihydro-1H-pyrazole-3-carboxylic acid cycloheptylamide] are 70.2%, 42.9% and 115 nM.
The like results for `O=C(NN1CCCCCCC1)C1=NN(c2ccc(Cl)cc2Cl)C(c2ccc(Br)cc2)C1` (stereo not drawn) [Example 146, 5-(4-bromo-phenyl)-1-(2,4-dichloro-phenyl)-4,5-dihydro-1H-pyrazole-3-carboxylic acid azocan-1-ylamide] were, in that order, 71.8%, 35.2% and 12 nM.
Turning to `Cl.O=C(NN1CCCCC1)C1=NN(c2ccc(Cl)cc2Cl)C(c2ccc(F)cc2)C1` (stereo not drawn) [Example 135, 1-(2,4-Dichloro-phenyl)-5-(4-fluoro-phenyl)-4,5-dihydro-1H-pyrazole-3-carboxylic acid piperidin-1-ylamide hydrochloride], in assay [3], the “Inhibition [%], 10^−7 M” value amounted to 78.5% and the “Inhibition [%], 10^−8 M” value was 40.2%. The same compound had an IC50 in assay [1] (hydrochloride) of 83 nM.
Turning to `Cl.O=C(NN1CC2CCCC2C1)C1=NN(c2ccc(Cl)cc2Cl)C(c2ccc(F)cc2)C1` (stereo not drawn) [Example 91A, 1-(2,4-Dichloro-phenyl)-5-(4-fluoro-phenyl)-4,5-dihydro-1H-pyrazole-3-carboxylic acid (hexahydro-cyclopenta[c]pyrrol-2-yl)-amide], in assay [3], the “Inhibition [%], 10^−7 M” value is 75.3% and the “Inhibition [%], 10^−8 M” value stood at 34.9%. Also, in assay [1], the IC50 amounted to 84 nM.
The like results for `O=C(N[C@@H]1CCCC[C@H]1OCc1ccccc1)C1=NN(c2ccc(Cl)cc2Cl)C(c2ccc(Cl)cc2)C1` (stereo partly drawn) [Example 178, N-((1R,2R)-2-(benzyloxy)cyclohexyl)-5-(4-chlorophenyl)-1-(2,4-dichlorophenyl)-4,5-dihydro-1H-pyrazole-3-carboxamide] were, in that order, 58%, 41.2% and 119 nM.
The corresponding values for `O=C(N[N+]1([O-])CCCCC1)C1=NN(c2ccc(Cl)cc2Cl)C(c2ccc(Cl)cc2)C1` (stereo not drawn) [Example 7, N-oxide of 5-(4-Chloro-phenyl)-1-(2,4-dichloro-phenyl)-4,5-dihydro-1H-pyrazole-3-carboxylic acid piperidin-1-ylamide] are 71.2%, −12.8% and 146 nM.

These data come from patent publication US8207156B2, “Substituted pyrazoline compounds, their preparation and use as medicaments” (Laboratorios Del Dr. Esteve, S.A., priority 2005, dated 2012).
